Legend:
Experiment in all cases: Indoor virulence and combined effect, greenhouse pot test, post-emergence stem and leaf spray, fresh weight inhibition
Assay type in all cases: in vivo
echinochloa crusgalli = conditions: Table 22
Method: (§1) The active ingredients A and B are respectively screened and an indoor combined effect of the composition on weeds was evaluated by an indoor test and a field test, to determine a combined effect of the composition on weeds.
Quantitative seeds of Poaceae weeds (echinochloa crusgalli, Digitaria sanguinalis, setaria viridis, Eleusine indica, avena fatua, alopecurus japonicus, alopecurus aequalis, Lolium multiflorum) and broadleaf weeds (eclipta prostrata, rorippa dubia, Abutilon theophrasti, conyza canadensis, veronica persica, myosoton aquaticum, polygonum lapathifolium, galium aparine var. tenerum, alisma plantago-aquatica, geranium carolinianum) were sown in paper cup containing nutrient soil with a diameter of 7 cm, covered with soil for 1 cm after sowing. After pressing and watering, they were cultured in a greenhouse according to a conventional method. Poaceae weeds grew to 3˜4 leaf stage, broad-leaved weeds grew to 4˜6 leaf stage, spraying treatment to both stem and leaf was performed; and pre-seedling soil spray treatment was performed 24 hours after sowing. […] The experiment was repeated three times. After being treated, a sample material is placed in an operation hall, and after the drug solution is naturally dried out, the sample material is placed in a greenhouse and managed according to the conventional method.
(§2) All of original drugs were using acetone as a solvent, being diluted with 0.1 wt % emulsifier of Tween-80 aqueous solution, and being diluted right before using.
(§3) When determining a ratio or content of the active ingredient A and the active ingredient B, it should be measured from characteristics of action of both agents and virulence thereof, as well as the main purpose of use of a formula shall also be considered in. In the present study, on a basis of previous pre-test, the dosages of the active ingredient A and the active ingredient B were set, when being used alone and mixed, as shown in the following table. Water containing no agent, but containing the same solvent and emulsifier was used as a blank control.
(§4) Repeat 4 times for each treatment, 3 pots per treatment each time and 30 weed seeds were sown for each pot.
(§5) Adopting an absolute number survey method, using a blade to cut the whole seedling of surviving weed along soil surface, and weighting the fresh weight of the weed with an analytical balance. For weeds that had died, counting the fresh weight as zero.
(§6) Survey period and frequency: 21 days after the treatment, total 1 investigation.
When E-E0 value was greater than 10%, it was counted as a synergistic effect, less than −10%, it was counted as an antagonistic effect, and between −10%˜10%, it was counted as an additive effect. […] In the formula, X is the fresh weight inhibition rate of the ingredient A at a dosage of P; Y is the fresh weight inhibition rate of the active ingredient B at a dosage of Q.

eleusine indica = tested on: eleusine indica
Method: as §1
(§7) Quantitative seeds of Poaceae weeds (echinochloa crusgalli, Digitaria sanguinalis, setaria viridis, Eleusine indica, avena fatua, alopecurus japonicus, alopecurus aequalis, Lolium multiflorum) and broadleaf weeds (eclipta prostrata, rorippa dubia, Abutilon theophrasti, conyza canadensis, veronica persica, myosoton aquaticum, polygonum lapathifolium, galium aparine var. tenerum, alisma plantago-aquatica, geranium carolinianum) were sown in paper cup containing nutrient soil with a diameter of 7 cm, covered with soil for 1 cm after sowing. After pressing and watering, they were cultured in a greenhouse according to a conventional method. Poaceae weeds grew to 3˜4 leaf stage, broad-leaved weeds grew to 4˜6 leaf stage, spraying treatment to both stem and leaf was performed; and pre-seedling soil spray treatment was performed 24 hours after sowing. Following an experimental design dosage, a WP-2000 walking spray tower (spindle speed 96 mm/r, spray height 200 mm, effective spray amplitude of nozzle 350 mm, nozzle flow rate 390 mL/min, nozzle walking speed 210 mm/s) was used for the spray treatment. The experiment was repeated three times. After being treated, a sample material is placed in an operation hall, and after the drug solution is naturally dried out, the sample material is placed in a greenhouse and managed according to the conventional method. A reaction of weeds to the drug agent is observed and recorded, and a regularly visual check of a control effect of the drug agent on weeds was performed after the treatment.
as §2, §3, §4, §5, §6
(§8) The theoretical fresh weight inhibition rate (E0-Expected Efficacy=[…]) of each treatment combination was calculated by Gowing method, and then compared with the measured inhibition rate (E-Observed Efficacy) to evaluate the combined effect type of both on weeds. When E-E0 value was greater than 10%, it was counted as a synergistic effect, less than −10%, it was counted as an antagonistic effect, and between −10%˜10%, it was counted as an additive effect. According to a plurality of factors including an actual control efficacy, a herbicide characteristic, a formula balance and other factors to determine the best ratio. In the formula, X is the fresh weight inhibition rate of the ingredient A at a dosage of P; Y is the fresh weight inhibition rate of the active ingredient B at a dosage of Q.
(§9) The statistical results are shown in Table 1 to Table 44 below, except for those marked clearly as “pre-emergence treatment”, all others are “post-emergence treatment”. […]

digitaria sanguinalis = conditions: for Fresh weight suppression rate %, B single agent: Table 14
Method: as §1, §7, §2, §3, §4, §5, §6, §8, §9

## COP(=S)(OC)SCC(=O)N(c1ccc(Cl)cc1)C(C)(C)C [anilofos]
Echinochloa crusgalli; B 60 g a.i./ha
  Fresh weight suppression rate %, B single dose: 37.41%
Echinochloa crusgalli; B 80 g a.i./ha
  Fresh weight suppression rate %, B single dose: 41.96%
Echinochloa crusgalli; B 105 g a.i./ha
  Fresh weight suppression rate %, B single dose: 46.85%
Echinochloa crusgalli; B 120 g a.i./ha
  Fresh weight suppression rate %, B single dose: 64.69%

## COC(=O)[C@@H](C)O/N=C/c1cc(-n2c(=O)cc(C(F)(F)F)n(C)c2=O)c(F)cc1Cl [flufenoximacil]
Eleusine indica; Table 36, B 5 g a.i./ha
  Fresh weight inhibition rate %, B single agent: 34.41%
Eleusine indica; Table 36, B 10 g a.i./ha
  Fresh weight inhibition rate %, B single agent: 51.91%
Eleusine indica; Table 36, B 15 g a.i./ha (row 5 + 15)
  Fresh weight inhibition rate %, B single agent: 55.99%
Eleusine indica; Table 36, B 15 g a.i./ha (row 15 + 15)
  Fresh weight inhibition rate %, B single agent: 55.99%
Eleusine indica; Table 36, B 20 g a.i./ha
  Fresh weight inhibition rate %, B single agent: 59.18%

## CCOC(=O)COc1ncccc1Oc1cc(-n2c(=O)cc(C(F)(F)F)n(C)c2=O)c(F)cc1Cl [epyrifenacil]
Eleusine indica; Table 35, B 5 g a.i./ha
  Fresh weight inhibition rate %, B single agent: 38.04%
Eleusine indica; Table 35, B 10 g a.i./ha
  Fresh weight inhibition rate %, B single agent: 32.92%
Eleusine indica; Table 35, B 15 g a.i./ha
  Fresh weight inhibition rate %, B single agent: 37.91%
Eleusine indica; Table 35, B 20 g a.i./ha
  Fresh weight inhibition rate %, B single agent: 51.59%

## C[C@@H](Oc1nc(F)c(Cl)c(N)c1Cl)C(=O)OCC1CCCO1 (some centres unmarked) [fluchloraminopyr-tefuryl]
Digitaria sanguinalis; Table 41, B 50 g a.i./ha
  Fresh weight inhibition rate %, B single agent: 47.40%
Digitaria sanguinalis; Table 41, B 80 g a.i./ha
  Fresh weight inhibition rate %, B single agent: 66.49%
Digitaria sanguinalis; Table 41, B 120 g a.i./ha
  Fresh weight inhibition rate %, B single agent: 74.76%
Digitaria sanguinalis; Table 41, B 150 g a.i./ha
  Fresh weight inhibition rate %, B single agent: 79.70%

## CCC[S+]([O-])c1c(C(F)(F)F)ccc(C(=O)Nc2nnc(C)o2)c1F (centres unmarked) [flusulfinam]
Digitaria sanguinalis; B 15 g a.i./ha
  Fresh weight suppression rate %, B single agent: 34.84%
Digitaria sanguinalis; B 30 g a.i./ha
  Fresh weight suppression rate %, B single agent: 36.52%
Digitaria sanguinalis; B 37.5 g a.i./ha
  Fresh weight suppression rate %, B single agent: 40.37%
Digitaria sanguinalis; B 45 g a.i./ha
  Fresh weight suppression rate %, B single agent: 50.75%

## Cc1c(C(=O)c2cnn(C)c2O)ccc(S(C)(=O)=O)c1C1=NOCC1 [topramezone]
Digitaria sanguinalis; Table 15, B 7.5 g a.i./ha
  Fresh weight inhibition rate %, B single agent: 3.85%
Digitaria sanguinalis; Table 15, B 10 g a.i./ha
  Fresh weight inhibition rate %, B single agent: 17.09%
Digitaria sanguinalis; Table 15, B 12.5 g a.i./ha
  Fresh weight inhibition rate %, B single agent: 19.6%

## C[C@@H](Oc1ccc(Oc2nc3ccc(Cl)cc3o2)cc1)C(=O)N(C)c1ccccc1F [metamifop]
Digitaria sanguinalis; Table 29, B 15 g a.i./ha
  Fresh weight inhibition rate %, B single agent: 49.80%
Digitaria sanguinalis; Table 29, B 25 g a.i./ha
  Fresh weight inhibition rate %, B single agent: 55.48%
Digitaria sanguinalis; Table 29, B 40 g a.i./ha
  Fresh weight inhibition rate %, B single agent: 58.52%
Digitaria sanguinalis; Table 29, B 60 g a.i./ha
  Fresh weight inhibition rate %, B single agent: 60.50%

## CC(C)N(C)S(=O)(=O)NC(=O)c1cc(-n2c(=O)cc(C(F)(F)F)n(C)c2=O)c(F)cc1Cl [saflufenacil]
Eleusine indica; Table 30, B 7.5 g a.i./ha
  Fresh weight inhibition rate %, B single agent: 23.20%
Eleusine indica; Table 30, B 12.5 g a.i./ha
  Fresh weight inhibition rate %, B single agent: 39.66%
Eleusine indica; Table 30, B 20 g a.i./ha
  Fresh weight inhibition rate %, B single agent: 50.62%
Eleusine indica; Table 30, B 30 g a.i./ha
  Fresh weight inhibition rate %, B single agent: 58.13%
Eleusine indica; Table 30, B 40 g a.i./ha
  Fresh weight inhibition rate %, B single agent: 50.09%

## COc1cc(OC)nc(NC(=O)NS(=O)(=O)c2ncccc2C(=O)N(C)C)n1 [nicosulfuron]
Digitaria sanguinalis; Digitaria sanguinalis, 504 h, Table 1, 12.5 g a.i./ha, post-emergence, 21 days after treatment, read-out: Fresh weight inhibition rate %, B single agent
  inhibition at 12.5 g/ha: 10.2%
Digitaria sanguinalis; Digitaria sanguinalis, 504 h, Table 1, 20 g a.i./ha, post-emergence, 21 days after treatment, read-out: Fresh weight inhibition rate %, B single agent
  inhibition at 20 g/ha: 23.4%
Digitaria sanguinalis; Digitaria sanguinalis, 504 h, Table 1, 25 g a.i./ha, post-emergence, 21 days after treatment, read-out: Fresh weight inhibition rate %, B single agent
  inhibition at 25 g/ha: 34.9%
Digitaria sanguinalis; Digitaria sanguinalis, 504 h, Table 1, 30 g a.i./ha, post-emergence, 21 days after treatment, read-out: Fresh weight inhibition rate %, B single agent
  inhibition at 30 g/ha: 39.1%

## CC(C)N.O=C(O)CNCP(=O)(O)O [glyphosate-isopropylammonium]
Eleusine indica; Table 18, B 160 g a.i./ha
  Fresh weight inhibition rate %, B single agent: 27.36%
Eleusine indica; Table 18, B 240 g a.i./ha
  Fresh weight inhibition rate %, B single agent: 32.37%
Eleusine indica; Table 18, B 350 g a.i./ha
  Fresh weight inhibition rate %, B single agent: 35.52%
Eleusine indica; Table 18, B 500 g a.i./ha
  Fresh weight inhibition rate %, B single agent: 45.72%

## CCOC(=O)C1(C)CC(c2cc(-n3c(=O)cc(C(F)(F)F)n(C)c3=O)c(F)cc2Cl)=NO1 (centres unmarked) [SY-1604]
Eleusine indica; Table 33, B 7.5 g a.i./ha
  Fresh weight inhibition rate %, B single agent: 47.10%
Eleusine indica; Table 33, B 12.5 g a.i./ha
  Fresh weight inhibition rate %, B single agent: 48.33%
Eleusine indica; Table 33, B 20 g a.i./ha
  Fresh weight inhibition rate %, B single agent: 64.09%
Eleusine indica; Table 33, B 30 g a.i./ha
  Fresh weight inhibition rate %, B single agent: 72.50%
Eleusine indica; Table 33, B 40 g a.i./ha
  Fresh weight inhibition rate %, B single agent: 74.06%

## oxadiargyl
Digitaria sanguinalis; Table 31, B 12.5 g a.i./ha
  Fresh weight inhibition rate %, B single agent: 38.31%
Digitaria sanguinalis; Table 31, B 20 g a.i./ha
  Fresh weight inhibition rate %, B single agent: 42.31%
Digitaria sanguinalis; Table 31, B 30 g a.i./ha
  Fresh weight inhibition rate %, B single agent: 52.31%

## CS(=O)(=O)c1cc(C(F)(F)F)ccc1C(=O)c1cnoc1C1CC1 [isoxaflutole]
Digitaria sanguinalis; Table 16, B 40 g a.i./ha
  Fresh weight inhibition rate %, B single agent: 56.12%
Digitaria sanguinalis; Table 16, B 50 g a.i./ha
  Fresh weight inhibition rate %, B single agent: 71.94%
Digitaria sanguinalis; Table 16, B 60 g a.i./ha
  Fresh weight inhibition rate %, B single agent: 73.13%
Digitaria sanguinalis; Table 16, B 70 g a.i./ha
  Fresh weight inhibition rate %, B single agent: 76.72%

## Cc1nn(-c2cc(NS(C)(=O)=O)c(Cl)cc2Cl)c(=O)n1C(F)F [sulfentrazone]
Eleusine indica; Table 32, B 75 g a.i./ha
  Fresh weight inhibition rate %, B single agent: 8.30%
Eleusine indica; Table 32, B 120 g a.i./ha
  Fresh weight inhibition rate %, B single agent: 18.12%
Eleusine indica; Table 32, B 150 g a.i./ha
  Fresh weight inhibition rate %, B single agent: 23.53%

## CS(=O)(=O)c1ccc(C(=O)C2C(=O)CCCC2=O)c([N+](=O)[O-])c1 [mesotrione]
Digitaria sanguinalis; Table 13, B 90 g a.i./ha
  Fresh weight inhibition rate %, B single agent: 45.39%
Digitaria sanguinalis; Table 13, B 105 g a.i./ha
  Fresh weight inhibition rate %, B single agent: 56.62%
Digitaria sanguinalis; Table 13, B 120 g a.i./ha
  Fresh weight inhibition rate %, B single agent: 58.12%

From patent publication US20250176550A1, “HERBICIDE COMPOSITION OF URACIL COMPOUND CONTAINING CARBOXYLATE FRAGMENT AND THE USE THEREOF” (Jiangsu Flag Chemical Industry Co., Ltd., priority 2022, published 2025)
